In ChEMBL document CHEMBL1201862, “PubChem BioAssay data set” (2004):
The source made the active and inactive calls.

Experiments:
[1] = molecular target: Mu-type opioid receptor (Homo sapiens, UniProt P35372); type: functional, cell-based;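 note: U2OS cells with beta-arrestin recruitment to OPRM1 by beta-gal complementation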
[2] = molecular target: Beta-2 adrenergic receptor (Homo sapiens, UniProt P07550); experiment: ADRB2 activation measured by internalization – cell-based, FAP fluorogen, flow cytometry, cherry pick 1, dose response (AID 588763); type: functional
Beta-2 adrenergic receptor, sequence (P07550 whole entry): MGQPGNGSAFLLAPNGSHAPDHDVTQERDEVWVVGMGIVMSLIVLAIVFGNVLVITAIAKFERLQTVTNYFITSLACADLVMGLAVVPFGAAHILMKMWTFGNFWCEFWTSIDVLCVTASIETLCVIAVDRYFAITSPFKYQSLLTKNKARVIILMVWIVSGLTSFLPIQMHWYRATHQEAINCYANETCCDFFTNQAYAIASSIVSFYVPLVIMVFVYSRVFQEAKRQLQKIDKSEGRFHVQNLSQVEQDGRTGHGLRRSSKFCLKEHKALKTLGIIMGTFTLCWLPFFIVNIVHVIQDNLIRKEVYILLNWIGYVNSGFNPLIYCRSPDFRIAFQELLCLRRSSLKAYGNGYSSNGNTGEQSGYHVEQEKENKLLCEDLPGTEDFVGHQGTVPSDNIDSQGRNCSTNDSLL

[3] = molecular target: 5-hydroxytryptamine receptor 2A (Mus musculus, UniProt P35363); type: functional, cell-based;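 note: CHO-K1 cells with tagged receptor and beta-arrestin; agonist potency measured as compound-induced activation of the receptor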
5-hydroxytryptamine receptor 2A, sequence (P35363 whole entry): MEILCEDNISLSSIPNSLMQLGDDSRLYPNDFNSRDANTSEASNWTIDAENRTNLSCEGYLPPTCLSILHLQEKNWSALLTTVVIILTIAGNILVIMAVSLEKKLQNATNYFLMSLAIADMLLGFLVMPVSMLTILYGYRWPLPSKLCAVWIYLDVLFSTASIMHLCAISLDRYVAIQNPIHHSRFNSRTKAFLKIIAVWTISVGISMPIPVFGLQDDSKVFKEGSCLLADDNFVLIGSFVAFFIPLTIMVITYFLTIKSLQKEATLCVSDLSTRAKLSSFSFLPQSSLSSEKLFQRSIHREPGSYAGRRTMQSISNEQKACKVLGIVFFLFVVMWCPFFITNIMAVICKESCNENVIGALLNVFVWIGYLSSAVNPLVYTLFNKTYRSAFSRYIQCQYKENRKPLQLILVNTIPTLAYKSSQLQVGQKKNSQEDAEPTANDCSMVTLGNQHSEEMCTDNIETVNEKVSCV

[4] = DRD fibroblast viability loss – cell-based, non-viral oncogenic, luminescence, dose response (AID 1934); type: functional; conditions: Homo sapiens
[5] = tested on: BJ; experiment: growth inhibition of engineered Ras-driven BJ cells – cell-based, alamar blue fluorescence, cherrypicked samples, dose response (AID 2631); type: functional; conditions: Homo sapiens;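 note: confirmatory dose-response assay in RAS-dependent BJ fibroblasts engineered with TERT, LT and ST, with cytotoxicity read by fluorescence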
[6] = molecular target: T1, V-type proton ATPase subunit c' (Saccharomyces cerevisiae S288c, UniProt P32842); experiment: Dose Response of Small Molecules that Regulate V-ATPase Proton Transport in Yeast using pHLuorin, Cherry Pick 1. [Related pubchem assays (depositor defined):AID504622]; type: functional
T1 sequence (P32842 whole entry): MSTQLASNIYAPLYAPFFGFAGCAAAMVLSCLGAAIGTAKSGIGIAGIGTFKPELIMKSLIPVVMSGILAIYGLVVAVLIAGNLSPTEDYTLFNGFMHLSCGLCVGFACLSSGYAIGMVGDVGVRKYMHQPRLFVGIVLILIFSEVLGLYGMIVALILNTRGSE

[7] = molecular target: Heat shock protein HSP 90-alpha (Homo sapiens, UniProt P07900); type: functional, organism-based
[8] = molecular target: T2, Heat shock factor protein 1 (Mus musculus, UniProt P38532); experiment: decrease of HSF1-responsive luciferase luminescence – cell-based, NIH3T3, dose retest, confirmation (AID 2382); type: functional;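 note: NIH3T3 fibroblasts with HSF1-driven luciferase reporter stressed by proteasome inhibitor MG132; luminescence from HSF1-driven luciferase expression after 8 hours of MG132 stress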
T2 sequence (P38532 whole entry): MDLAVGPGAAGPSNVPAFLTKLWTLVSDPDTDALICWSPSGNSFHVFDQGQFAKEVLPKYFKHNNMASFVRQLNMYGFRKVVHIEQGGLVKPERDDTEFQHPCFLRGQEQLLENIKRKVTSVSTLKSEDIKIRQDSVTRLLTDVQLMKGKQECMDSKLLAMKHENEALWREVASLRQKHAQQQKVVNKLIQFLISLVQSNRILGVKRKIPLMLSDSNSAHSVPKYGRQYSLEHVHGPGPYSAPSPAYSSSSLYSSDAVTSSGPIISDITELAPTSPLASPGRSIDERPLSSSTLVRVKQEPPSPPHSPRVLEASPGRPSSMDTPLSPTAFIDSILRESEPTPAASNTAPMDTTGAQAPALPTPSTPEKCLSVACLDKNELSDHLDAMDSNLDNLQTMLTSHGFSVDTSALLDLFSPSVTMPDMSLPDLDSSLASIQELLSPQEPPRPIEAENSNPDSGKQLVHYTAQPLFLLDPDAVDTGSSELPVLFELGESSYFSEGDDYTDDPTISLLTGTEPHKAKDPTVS

[9] = tested on: BJ; experiment: BJ-TERT-LT-ST fibroblast viability loss – cell-based, RAS-independent, luminescence, dose response (AID 1935); type: functional; conditions: Homo sapiens;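 note: BJ fibroblasts immortalized with TERT plus LT and ST oncogenes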
[10] = luciferase reporter signal suppression in cells – H4 neuroglioma cells, luminescence, dose response (AID 1990); type: functional, cell-based
[11] = tested on: BJ; experiment: cells; type: functional, cell-based; conditions: Homo sapiens
[12] = molecular target: T1, V-type proton ATPase subunit c'; experiment: Dose Response of Small Molecules that Regulate V-ATPase Proton Transport in Yeast using pHLuorin, Cherry Pick 2.; type: functional; conditions: read-out: EC50_MICROM
[13] = tested on: BJ; experiment: BJ-TERT fibroblast viability loss – cell-based, RAS-independent, luminescence, dose response (AID 1933); type: functional; conditions: Homo sapiens
[14] = viability loss in CEM21 cells – cell-based, CellTiter-Glo luminescence, cherry-picked, cytotoxicity control for viral fusion inhibitor project, dose response (AID 652042); type: functional;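 note: potency for signal decrease meaning cytotoxicity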
[15] = fluconazole-exposed Candida albicans growth modulators – fluorescence, retest, confirmation (AID 2467); type: functional, cell-based
[16] = Luminescence Cell-Based Dose Response HTS to Identify Inhibitors of 5'UTR Stem-Loop Driven Prion Protein mRNA Translation in H4 Neuroglioblastoma Cells. [Related pubchem assays: 1827 (Project Summary), 1813 (Primary HTS)]; type: functional
[17] = off-target signal loss in HeLa-CEM21 co-culture – HeLa F-luc CTL cells, cherry-picked, counter-screen for HIV-1 Env fusion inhibitor project, dose response (AID 652040); type: functional, cell-based;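 note: potency for signal decrease marking cytotoxic or nonspecific inhibition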
[18] = molecular target: T3, Fatty acid synthase (Homo sapiens, UniProt P49327); experiment: inhibition of human FAS-TE enzyme activity – biochemical, kinetic fluorescence intensity, dose response (AID 624326); type: functional;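 note: rate of fluorescence rise from hydrolysis of a fluorogenic O-methyl fluorescein ester substrate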
T3 sequence (P49327 whole entry): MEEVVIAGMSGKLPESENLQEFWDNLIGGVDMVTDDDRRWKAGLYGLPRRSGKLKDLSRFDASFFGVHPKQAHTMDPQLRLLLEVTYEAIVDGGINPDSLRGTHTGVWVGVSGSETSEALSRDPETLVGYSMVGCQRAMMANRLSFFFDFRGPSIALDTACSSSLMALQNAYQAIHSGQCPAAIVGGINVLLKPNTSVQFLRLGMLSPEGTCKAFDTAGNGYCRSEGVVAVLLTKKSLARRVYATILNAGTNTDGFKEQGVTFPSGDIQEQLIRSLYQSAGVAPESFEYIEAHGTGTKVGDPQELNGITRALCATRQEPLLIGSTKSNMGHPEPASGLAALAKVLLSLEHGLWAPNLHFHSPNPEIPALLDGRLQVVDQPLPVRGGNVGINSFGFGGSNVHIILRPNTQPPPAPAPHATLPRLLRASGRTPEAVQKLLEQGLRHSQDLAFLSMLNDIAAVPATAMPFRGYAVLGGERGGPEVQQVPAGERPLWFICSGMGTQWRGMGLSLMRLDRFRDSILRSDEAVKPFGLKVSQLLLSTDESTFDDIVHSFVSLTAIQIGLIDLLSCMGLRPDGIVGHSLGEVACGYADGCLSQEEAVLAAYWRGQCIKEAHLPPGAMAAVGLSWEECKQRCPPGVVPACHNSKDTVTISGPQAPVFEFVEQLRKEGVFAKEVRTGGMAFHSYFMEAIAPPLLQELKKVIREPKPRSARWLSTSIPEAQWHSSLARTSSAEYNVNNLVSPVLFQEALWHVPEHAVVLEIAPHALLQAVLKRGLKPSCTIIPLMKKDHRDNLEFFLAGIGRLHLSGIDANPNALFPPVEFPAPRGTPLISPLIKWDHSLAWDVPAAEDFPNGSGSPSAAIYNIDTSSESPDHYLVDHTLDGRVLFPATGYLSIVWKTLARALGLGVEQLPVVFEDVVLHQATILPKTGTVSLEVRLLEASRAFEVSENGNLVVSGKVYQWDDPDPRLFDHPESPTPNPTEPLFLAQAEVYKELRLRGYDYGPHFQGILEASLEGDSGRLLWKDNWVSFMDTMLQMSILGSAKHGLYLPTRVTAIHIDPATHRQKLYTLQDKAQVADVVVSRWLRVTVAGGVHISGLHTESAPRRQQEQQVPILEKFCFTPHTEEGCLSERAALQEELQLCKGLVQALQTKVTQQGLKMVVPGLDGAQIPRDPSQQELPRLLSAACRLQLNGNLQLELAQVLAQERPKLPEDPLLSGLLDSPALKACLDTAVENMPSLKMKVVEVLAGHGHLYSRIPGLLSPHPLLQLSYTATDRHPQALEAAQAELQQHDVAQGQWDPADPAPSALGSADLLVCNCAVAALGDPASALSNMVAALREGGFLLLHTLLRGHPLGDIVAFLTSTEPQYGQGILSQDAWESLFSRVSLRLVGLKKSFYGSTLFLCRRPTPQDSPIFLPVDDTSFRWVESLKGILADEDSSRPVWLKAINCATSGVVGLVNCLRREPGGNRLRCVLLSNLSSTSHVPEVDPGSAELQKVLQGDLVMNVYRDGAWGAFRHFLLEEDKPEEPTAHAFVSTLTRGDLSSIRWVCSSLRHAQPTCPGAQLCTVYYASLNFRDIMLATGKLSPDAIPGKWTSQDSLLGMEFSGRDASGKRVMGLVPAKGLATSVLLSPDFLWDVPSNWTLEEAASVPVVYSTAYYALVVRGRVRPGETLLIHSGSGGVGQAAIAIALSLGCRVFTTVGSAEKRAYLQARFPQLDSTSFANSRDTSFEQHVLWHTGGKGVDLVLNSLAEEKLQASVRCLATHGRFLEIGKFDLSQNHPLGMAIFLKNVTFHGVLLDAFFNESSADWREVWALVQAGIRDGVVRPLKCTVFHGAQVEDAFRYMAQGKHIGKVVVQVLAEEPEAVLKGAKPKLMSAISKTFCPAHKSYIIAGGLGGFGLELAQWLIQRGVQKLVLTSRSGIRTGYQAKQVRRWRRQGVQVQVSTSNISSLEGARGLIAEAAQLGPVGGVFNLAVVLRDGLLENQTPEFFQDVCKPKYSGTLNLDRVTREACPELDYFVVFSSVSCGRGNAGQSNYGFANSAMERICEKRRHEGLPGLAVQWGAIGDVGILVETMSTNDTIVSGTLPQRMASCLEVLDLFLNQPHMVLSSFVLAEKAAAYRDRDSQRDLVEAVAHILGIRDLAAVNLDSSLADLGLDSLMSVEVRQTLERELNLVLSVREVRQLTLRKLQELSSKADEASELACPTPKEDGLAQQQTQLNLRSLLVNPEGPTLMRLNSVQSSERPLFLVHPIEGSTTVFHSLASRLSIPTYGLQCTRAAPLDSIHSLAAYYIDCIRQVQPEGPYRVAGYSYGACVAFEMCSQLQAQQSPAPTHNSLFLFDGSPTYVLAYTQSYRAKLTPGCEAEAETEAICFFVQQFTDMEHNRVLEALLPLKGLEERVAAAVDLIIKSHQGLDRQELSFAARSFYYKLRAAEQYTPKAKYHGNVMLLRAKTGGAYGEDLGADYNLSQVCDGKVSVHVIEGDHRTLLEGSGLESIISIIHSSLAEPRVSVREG

[19] = molecular target: T3, Fatty acid synthase; experiment: inhibition of human FAS-TE enzyme activity – biochemical, endpoint fluorescence intensity, uHTS hits, dose response (AID 624327); type: functional;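 note: fluorescence from hydrolysis of an O-methyl fluorescein acyl ester substrate by the enzyme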
[20] = HIV-1 AD8 envelope cell-cell fusion blockers – cherry-pick, dose response (AID 652062); type: functional, cell-based;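 note: luciferase signal from cell-cell fusion driven by HIV-1 clade B AD8 Env; potency is for inhibitors of fusion seen as a drop in luminescence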
[21] = Luminescence-based dose response cell-based high throughput screening assay for cytotoxic compounds using the IEC-6 intestinal epithelial cell line. [Related pubchem assays: 1858 (Summary AID.), 1825 (Counterscreen.), 1907 (Confirmation screen.)]; type: functional
[22] = blockers of HIV-1 envelope-mediated cell-cell fusion – cherry-pick, dose response (AID 652057); type: functional, cell-based
[23] = alpha-synuclein stem-loop luciferase translation blockers – H4 neuroglioma cells, luminescence, confirmation (AID 1988); type: functional, cell-based
[24] = NIH-3T3 fibroblast cytotoxicity, dose response, cytotoxicity control, cell-based, fluorescence, Alamar Blue, secondary assay (AID 2327); type: functional;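 note: NIH-3T3 mouse fibroblasts cultured with fluconazole at 8 µg/mL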
[25] = molecular target: Mitochondrial peptide methionine sulfoxide reductase (Bos taurus, UniProt P54149); type: functional;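 note: absorbance read-out, biochemical high-throughput dose-response screen for MsrA inhibitors, confirmatory; recombinant bovine MsrA coupled to E. coli TrxB with NADPH and selenocystamine; potency is for inhibitors of MsrA activity on DMSO substrate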
Mitochondrial peptide methionine sulfoxide reductase, sequence (P54149 whole entry, the tested form may be a part): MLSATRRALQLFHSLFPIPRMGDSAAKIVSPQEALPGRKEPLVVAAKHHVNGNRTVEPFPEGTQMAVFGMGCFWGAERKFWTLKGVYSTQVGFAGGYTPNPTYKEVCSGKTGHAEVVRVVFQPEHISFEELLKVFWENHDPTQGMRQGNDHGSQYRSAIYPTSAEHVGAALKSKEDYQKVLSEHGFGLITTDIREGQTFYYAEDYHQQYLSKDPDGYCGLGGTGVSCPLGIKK

[26] = blockers of HIV-1 ZM109 envelope-driven cell-cell fusion – HeLa effector, CEM target cells, luciferase, cherry-pick, dose response (AID 652058); type: functional, cell-based;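 note: luciferase signal from HIV-1 Env mediated cell-cell fusion of effector and target cells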
[27] = HEK-293T viability loss after treatment – luminescence, T-cell screen hits, cytotoxicity control for TCR NF-kB inhibitor project, dose response (AID 489026); type: functional, cell-based;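 note: cells exposed to compound about 14 hours before the viability readout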
[28] = molecular target: Acyl-homoserine lactone acylase PvdQ (Pseudomonas aeruginosa (strain LESB58), UniProt Q9I194); experiment: PvdQ acylase enzyme activity blockers – biochemical, fluorescence, plate reader and imaging, cherry-picks, dose response (AID 493231)
Acyl-homoserine lactone acylase PvdQ, sequence (Q9I194 24-193 limits assumed): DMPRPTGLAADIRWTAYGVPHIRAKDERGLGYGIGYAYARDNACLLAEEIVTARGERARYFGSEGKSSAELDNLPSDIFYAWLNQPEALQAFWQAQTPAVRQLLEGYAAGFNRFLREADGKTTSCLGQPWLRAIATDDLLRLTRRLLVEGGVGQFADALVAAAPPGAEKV
Acyl-homoserine lactone acylase PvdQ, sequence (Q9I194 217-762 limits assumed): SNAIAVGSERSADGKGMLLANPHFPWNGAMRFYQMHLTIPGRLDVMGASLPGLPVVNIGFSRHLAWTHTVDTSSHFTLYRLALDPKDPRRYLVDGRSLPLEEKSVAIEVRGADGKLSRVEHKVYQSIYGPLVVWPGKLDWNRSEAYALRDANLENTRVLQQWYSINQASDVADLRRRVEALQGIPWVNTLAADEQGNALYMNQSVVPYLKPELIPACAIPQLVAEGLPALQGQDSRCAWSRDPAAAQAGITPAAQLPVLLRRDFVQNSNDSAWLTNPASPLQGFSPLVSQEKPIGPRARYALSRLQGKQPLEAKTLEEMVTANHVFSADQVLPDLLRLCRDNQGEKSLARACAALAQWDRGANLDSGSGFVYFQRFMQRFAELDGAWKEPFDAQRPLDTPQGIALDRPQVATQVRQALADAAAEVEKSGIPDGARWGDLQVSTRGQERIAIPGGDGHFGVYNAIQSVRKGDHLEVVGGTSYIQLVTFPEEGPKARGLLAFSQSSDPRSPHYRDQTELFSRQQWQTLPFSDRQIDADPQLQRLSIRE

[29] = tested on: HeLa; experiment: toxicity to human HeLa cells – cell-based, 48 h, plate reader, cherry-picks, cytotoxicity control, dose response (AID 504942); type: functional

Mu-type opioid receptor, sequence (P35372 whole entry): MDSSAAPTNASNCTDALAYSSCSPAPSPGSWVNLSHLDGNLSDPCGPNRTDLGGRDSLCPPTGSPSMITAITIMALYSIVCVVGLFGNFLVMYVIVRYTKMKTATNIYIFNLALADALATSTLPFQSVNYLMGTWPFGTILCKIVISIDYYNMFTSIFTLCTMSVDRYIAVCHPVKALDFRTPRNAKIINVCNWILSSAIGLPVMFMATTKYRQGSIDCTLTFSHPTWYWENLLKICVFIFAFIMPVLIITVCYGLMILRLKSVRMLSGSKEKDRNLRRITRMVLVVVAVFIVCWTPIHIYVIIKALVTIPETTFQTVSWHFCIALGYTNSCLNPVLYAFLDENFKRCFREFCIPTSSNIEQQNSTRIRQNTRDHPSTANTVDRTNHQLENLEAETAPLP

In the case of `CC(=O)N1CCc2cc(C(=O)CN3CCN(c4cccc(Cl)c4)CC3)ccc21`, the EC50 [1] is reported as 92500 nM (inactive), the EC50 [2] is reported as 47.2 nM (active) and the EC50 [3] is reported as 133 nM (active).
With `CCOC(=O)NN=C1c2ccccc2-c2nc3nonc3nc21` the EC50 [4] was 2390 nM (active), the EC50 [5] was 1860 nM (active) and the EC50 [6] was 27100 nM (active). The AC50 [7] was 1260 nM (active), the EC50 [8] was 3640 nM (active) and the EC50 [9] was 1350 nM (inconclusive). For the same compound, the EC50 [10] was 234 nM (active), the EC50 [11] was 587 nM (inconclusive) and the EC50 [12] was 2370 nM (active). The EC50 [13] was 2330 nM (active), the AC50 [14] was 1700 nM (active) and the EC50 [15] was 83 nM (active). The EC50 [16] was 593 nM (active), the AC50 [17] was 3560 nM (active) and the IC50 [18] was 859 nM (active). The IC50 [19] was 1670 nM (active), the AC50 [20] was 3360 nM (active) and the IC50 [21] was 223 nM (active). The AC50 [22] was 4410 nM (active), the EC50 [23] was 131 nM (active) and the EC50 [24] was 1710 nM (active). The IC50 [25] was 155000 nM (inactive), the AC50 [26] was 2960 nM (active) and the IC50 [27] was 3200 nM (active).
For `Cc1cccc(NC(=O)c2ccc3c(c2)OCCO3)n1`, the AC50 [28] was 10200 nM (active) and the AC50 [29] was 94100 nM (active).
